{
  "source": "patent US20200069644A1",
  "about": "“NOVEL USE OF A FORMYL PEPTIDE RECEPTOR 2/ LIPOXIN A4 RECEPTOR (FPR2/ALX) AGONIST FOR TREATMENT OF HEART FAILURE” (BRISTOL- MYERS SQUIBB COMPANY, priority 2017, published 2020)",
  "key": {"[1]": {"test_system": "DOCA-challenged cardiac fibrosis in mice", "format": "in vivo", "experimental": "In a second model of non-ischemic heart disease with hypertension, mice were subjected to uni-nephrectomy and challenged with deoxycorticosterone acetate (DOCA) and saline drinking water to stimulate cardiac hypertrophy and left ventricular fibrosis. Mice were administered DOCA using subcutaneously implanted pellets (50 mg). A separate group of mice were subjected to surgery via creation of subcutaneous pocket (surgical “sham” group); these mice served as control for pellet implantation surgery. Mice were treated with Compound 1 (1 mg/kg, QD) or dosing solution (QD, referred to as vehicle) 24 hours after surgery. Treatment with Compound 1 was given to mice for 3 weeks. At the end of treatment phase, hearts were removed from animals and evaluated for collagen levels/fibrosis by cross-sectional histology of the hearts.\nMyocardial fibrosis was evaluated in the mouse with continuous DOCA challenge administered by subcutaneous release pellet. The model increases systemic blood pressure and tissue inflammation in target tissues such as the myocardium via agonism of the mineralocorticoid receptor by DOCA. It also involves surgical uni-nephrectomy and supplementation with saline in the drinking water to further drive disease pathology. This is a model of non-ischemic heart disease.\nThe effect of Compound 1 on cardiac fibrosis development in the DOCA-salt mouse model was evaluated histologically. […]"}, "[2]": {"target": "T1, Mouse FPR1 (Mus musculus, UniProt P33766)", "T1 construct": "expressed in transfected cells", "T1 sequence (P33766 1-364)": "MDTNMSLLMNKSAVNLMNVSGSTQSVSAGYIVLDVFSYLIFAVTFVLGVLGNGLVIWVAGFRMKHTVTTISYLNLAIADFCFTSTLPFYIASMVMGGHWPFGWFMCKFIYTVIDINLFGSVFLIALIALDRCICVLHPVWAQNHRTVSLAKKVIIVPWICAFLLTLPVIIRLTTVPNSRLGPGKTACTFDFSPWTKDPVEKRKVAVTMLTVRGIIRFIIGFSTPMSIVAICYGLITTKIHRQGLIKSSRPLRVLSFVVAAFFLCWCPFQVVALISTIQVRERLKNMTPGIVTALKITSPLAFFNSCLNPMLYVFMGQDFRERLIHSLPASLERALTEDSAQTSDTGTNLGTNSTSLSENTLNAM", "experiment": "cAMP inhibition, mouse FPR1/CHO-A12", "format": "cell-based"}, "[3]": {"test_system": "Rat FPR2", "experiment": "cAMP inhibition, rat FPR2 CHO cells", "format": "cell-based", "conditions": "CHO cell lines, cAMP"}, "[4]": {"target": "Rat FPR2 (Rattus norvegicus, UniProt A0A8I6AM80)", "sequence (A0A8I6AM80 1-351)": "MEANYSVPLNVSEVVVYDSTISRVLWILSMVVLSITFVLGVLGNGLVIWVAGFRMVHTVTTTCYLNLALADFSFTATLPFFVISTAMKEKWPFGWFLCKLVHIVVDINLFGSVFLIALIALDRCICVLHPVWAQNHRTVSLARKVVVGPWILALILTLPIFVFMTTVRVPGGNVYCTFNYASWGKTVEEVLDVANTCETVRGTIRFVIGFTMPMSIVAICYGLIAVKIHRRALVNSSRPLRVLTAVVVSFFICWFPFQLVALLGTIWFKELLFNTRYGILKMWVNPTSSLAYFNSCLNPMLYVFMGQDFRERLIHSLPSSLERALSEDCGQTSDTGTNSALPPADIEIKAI", "experiment": "cAMP inhibition, rat FPR2 CHO cells", "format": "cell-based", "conditions": "Rat FPR2"}, "[5]": {"test_system": "ischemia-reperfusion myocardial infarction in rats", "experiment": "Rat model of ischemia-reperfusion myocardial infarction, 6 weeks", "format": "in vivo", "experimental": "In a third model of myocardial infarction, transient coronary artery occlusion followed by reperfusion was carried out in rats to induce myocardial infarction and to assess salvage of myocardium within the area at risk of myocardial infarction. Treatment with orally-administered Compound 1 (0.01, 0.1, 1, and 10 mg/kg, QD) or dosing solution without compound (QD, referred to as vehicle) was initiated 48 hours following myocardial infarction. Rats subjected to thoracotomy but not infarcted were included as surgical “sham” controls. Rats were evaluated 6 weeks following myocardial infarction to assess structure/function relationships. Hearts were removed from rats for histological processing to the extent of myocardial salvage with Compound 1 treatment. The pressure-volume conductance catheter technique was used to evaluate cardiac function.\nThe effects of Compound 1 on left ventricle and infarct scar remodeling were evaluated in a rat model of ischemia-reperfusion myocardial infarction. Treatments were initiated 48 hr after MI and were continued for 6 weeks. MI was created by transient ligation the left anterior descending artery with a surgical suture for 1 hour followed by reperfusion. Treatments consisted of a suspension vehicle, Compound 1 at 0.01, 0.1, 1 and 10 mg/kg. At the end of 6 weeks of treatment, hearts were removed for histological evaluation of left ventricle structure and scar structure. This is a model of ischemic heart disease.\nIn addition, the effect of Compound 1 on cardiac function was measured by the pressure-volume conductance catheter technique to assess structure/function relationships. The structure of the infarct wall was measured histologically to determine the extent of myocardial infarction and myocardial tissue salvage. In this model, blood reperfusion to the site of ischemia is designed to salvage myocardium within the area at risk of myocardial infarction. However, in this model, there is potential for additional insult to tissue caused by reperfusion that can stimulate added myocardial necrosis. Therefore, measurement of myocardial salvage within the myocardial infarct zone is an important endpoint in this model. […] Preservation of viable myocardium was obtained at the 0.1, 1 and 10 mg/kg doses (31-41% preservation relative to vehicle, *P<0.05, **P<0.01, ***P<0.001).\nA pressure-volume conductance catheter was used to measure left ventricular ejection fraction at the end of the treatment phase. The fraction of blood pumped out of the left ventricle was measured per contraction cycle (i.e., ejection fraction) and was used to assess overall cardiac function following 6 weeks of treatment. […]"}},
  "note": "“And” between values parts separate entries of the source, which are not always exact repeats. Equal entries are not always repeated.",
  "data": [
    {"compound": "COc1cc(F)c([C@@H]2CNC(=O)[C@H]2NC(=O)Nc2ccccc2)c(F)c1", "note": "[Compound 1, 1-((3S,4R)-4-(2,6-difluoro-4-methoxyphenyl)-2-oxopyrrolidin-3-yl)-3-phenylurea]", "values": [
      {"measurement": "reduction of left ventricular fibrosis vs. vehicle treatment group", "setting": "[1]; 1 mg/kg QD for 3 weeks, started 24 h after surgery, P<0.01", "result": 50, "unit": "%"},
      {"measurement": "tolerability during in-life phase", "setting": "[1]; mouse, in vivo, 1 mg/kg", "result": "well tolerated"},
      {"measurement": "EC50", "setting": "[2]", "result": "~384 nM and 384 nM"},
      {"measurement": "selectivity for rat FPR2 vs. FPR1", "setting": "[3]", "result": 480, "unit": "fold"},
      {"measurement": "EC50", "setting": "[4]", "result": 1.5, "unit": "nM"},
      {"measurement": "improvement in left ventricular ejection fraction vs. vehicle (pressure-volume conductance catheter)", "setting": "[5]; 0.01 mg/kg PO QD, P<0.05", "result": 37, "unit": "%"},
      {"measurement": "improvement in left ventricular ejection fraction vs. vehicle (pressure-volume conductance catheter)", "setting": "[5]; 1 mg/kg PO QD, P<0.01", "result": 51, "unit": "%"},
      {"measurement": "preservation of viable myocardium across infarct wall relative to vehicle", "setting": "[5]; 0.1, 1 and 10 mg/kg PO QD", "result": "31-41%"},
      {"measurement": "left ventricular ejection fraction vs. vehicle (pressure-volume conductance catheter)", "setting": "[5]; other doses (0.1 and 10 mg/kg)", "result": "trend towards improved ejection fraction"}
    ]}
  ]
}
